# Experimental data as given in patent publication US20130172324A1, “METHOD FOR TREATING CARDIOVASCULAR DISEASES USING RHO KINASE INHIBITOR COMPOUNDS” (priority 2008, published 2013).
# Read-outs that look alike come from different tables or passages of the source.
# Assays:
# [1] = system: ova-sensitized, ova-challenged mice; assay: Prevention of airway hyperreactivity development, anti-inflammatory dosing paradigm (Penh); type: in vivo, mouse; conditions: for airway hyperreactivity: intratracheal once a day, days 27 to 30 (1.091) or 27 to 31
# ERK2 = biological target: T1, ERK2 (Homo sapiens, UniProt P28482); assay: Kinase panel screen (KinaseProfiler), ERK2; type: biochemical; conditions: 10 μM ATP
# T1 construct: purchased Upstate, Millipore Bioscience Division (KinaseProfiler service)
# T1 sequence (P28482 whole entry): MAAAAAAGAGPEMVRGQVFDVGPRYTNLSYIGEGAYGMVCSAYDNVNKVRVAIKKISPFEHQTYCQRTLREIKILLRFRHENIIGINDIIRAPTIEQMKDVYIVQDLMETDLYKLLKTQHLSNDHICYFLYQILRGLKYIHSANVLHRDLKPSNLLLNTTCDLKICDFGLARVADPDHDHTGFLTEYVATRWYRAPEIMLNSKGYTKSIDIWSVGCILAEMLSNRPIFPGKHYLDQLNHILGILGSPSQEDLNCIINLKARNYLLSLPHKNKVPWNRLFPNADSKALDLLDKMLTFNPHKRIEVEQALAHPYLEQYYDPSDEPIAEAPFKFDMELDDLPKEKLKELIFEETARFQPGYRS
# Description: (§1) Compounds of Formulae I and II were examined for activity against a selected panel of kinases using the KinaseProfiler™ enzyme profiling services (Upstate, Millipore Bioscience Division). Percent kinase activity at 10 μM and 1 μM test compound and 10 μM ATP was determined against 40 wild-type recombinant human kinases according to Upstate's standard protocol: ASK1, BTK, CSK, c-RAF, GCK, GSK3β, IKKα, IKKβ, IRAK1, IRAK4, JNK1α1, JNK2α2, JNK3, ERK1, ERK2, MAPKAP-K2, MAPKAP-K3, MEK1, MKK4, MKK6, MKK7β, Mnk2, MSK1, PAK3, PDK1, PRAK, ROCK1, Rsk2, SAPK2a, SAPK2b, SAPK3, SAPK4, SRPK1, SRPK2, Syk, TAK1, TBK1, PI3-Kβ, PI3-Kγ, PI3-Kδ.
# rat trachea rings = assay: Tracheal relaxation assay (carbachol precontracted rings); conditions: for Percentage of carbachol-induced contraction at 1 μM compound, Avg % / Percentage of carbachol-induced contraction at 10 μM compound, Avg %: 1 μM carbachol; for Trachael Ring Contraction, %: average percentage of carbachol-induced rat tracheal ring contraction at 1 μM of test compound; for IC50: read-out: IC50 Avg;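 for all read-outs here: isometric tension of rat tracheal rings in Krebs buffer with 1 µM indomethacin, compounds added cumulatively at 30 min intervals, basal tension subtracted, fit to Hill equation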
# Description: The effects of compounds to induce relaxation of pre-contracted rat trachealis were determined. […] Trachea were excised, cleaned of connective tissue and cut into cylindrical segments of 2-3 mm length. Two stainless steel wires were guided through the lumen of the tracheal ring. One wire was fixed in the tissue bath and the other was connected to a force transducer via surgical silk. […] Indomethacin (1 μM), a cyclooxygenase inhibitor, was added to the Krebs buffer and was present throughout the experiments. Contractile tensions were measured using an isometric force transducer (Grass Instruments) and signals were analyzed using specialized software (Chart v5.5, ADInstruments). The preparations were allowed to equilibrate at a resting tension of 0.3 to 0.5 gm prior to two challenges with 60 mM KCl to assess tissue viability. After washing, tissues were treated with 1 μM carbachol for 10 to 15 minutes to induce a contractile response. Test Compounds were added cumulatively to the bath every 30 minutes and reductions in tension were recorded. Basal tension was subtracted from all values and data were reported as a percentage of the maximal carbachol-induced contraction. Data were fit to the Hill equation using GraphPad Prism v5 software.
# [2] = system: ova-sensitized, ova-challenged mice; assay: Bronchodilator assay in ovalbumin-sensitized mice (Penh, methacholine); type: in vivo, mouse; conditions: for log10AUC (penh): bronchodilator dosing paradigm
# Description: Male BALB/c mice were ordered from Charles River Laboratories (Raleigh, N.C.). The animals were approximately 19 to 21 grams at time of receipt. Upon arrival, the animals were randomized into groups of five males per cage and assigned to a dosing group. Animals were quarantined for 7 days under test conditions. They were observed daily for general health status and ability to adapt to the water bottles.
# Animals were sensitized on day 0 and 14 of study by an intraperitoneal injection with 20 μg of ovalbumin (ova) and 2.0 mg aluminum hydroxide (alum) which initiates the development of a specific T-helper (Th) cells type 2 resulting in asthmatic animals. One group of animals received an injection of saline to use as non-asthmatic control animals. All animals were challenged with aerosolized 1% ova once daily for 25 minutes on days 28, 29, and 30 (Zosky, et al. Respiratory Research. 2004; 5:15). Aerosol challenge consists of using an Aerogen Aeroneb nebulizer and controller with a particle size of 4-6 μm mass median aerodynamic diameter (MMAD) with a distribution of 400 μl per minute. This aerosol challenge is necessary to target the Th2-driven allergic inflammation in the lower airways.
# The test compounds and the control vehicle were administered to animals on the day of airway hyperreactivity evaluation 30 minutes to 1 hour before the evaluation to determine the bronchodilator effects of the compounds according to the bronchodilator dosing paradigm (FIG. 8). Compounds were administered p.o. (orally), i.p. (intraperitoneally) at 15 μMol/kg unless otherwise noted (Table 6). Alternatively, compounds were administered i.t. (intratracheally) at varying doses as shown (FIG. 9). On day 32 of the experiment, airway hyperreactivity was evaluated by placing conscious, unrestrained animals in a whole body plethysmometer (Buxco Wilmington, N.C.) and exposing them to escalating doses of nebulized methacholine, a known bronchial constrictor which acts through the muscarinic receptors of the lungs, (doses: 0.325-50 mg/ml). Exposure to the methacholine doses consisted of a 3 minute period during which a nebulizer was aerosolizing the methacholine and an additional 3 minute period following the cessation of nebulization. Over this 6 minute period, the plethysmometer monitors and generates numerical values for all parameters of the breath pattern. Enhanced pause (Penh), a unitless index of airway hyperreactivity, is derived from the expiratory side of the respiratory waveform measured via the plethysmograph and is used as an indirect measure of airway resistance and hyperreactivity. […] Following the methacholine dose response, all animals were anesthetized, bled and euthanized.
# Within each experiment, a mouse was given a single compound and exposed to increasing doses of methacholine [0 (baseline), 0.375, 0.75, 1.5, 3, 6, 12, 25, 50 mg/ml]. The Penh value at each of the dose levels of methacholine represents the 6-minute average response. Change from baseline (CFB) in Penh was calculated at each methacholine dose and the area under the curve (AUC) for these CFB values was calculated using the trapezoidal rule. This same approach was applied for each mouse across multiple experiments.
# For statistical analyses, a linear mixed-effects model where the response was the log 10 transformed value of AUC described above was used. Data from equal experimental conditions across experiments performed on different days were pooled for statistical analysis and data reporting. The various compounds were compared adjusting for the log 10-transformed baseline value of Penh and the chamber (1 of 10) of the plethysmometer each mouse was contained in during an experiment. A random intercept for each experiment was assumed to account for possible similarities of the results obtained from a given experiment (i.e., as a “blocking effect”). […] Computations were performed using PROC MIXED (SAS Version 9.1). […]
# [3] = Rat oral pharmacokinetics (plasma); type: in vivo
# Description: Plasma (EDTA K2 anticoagulant) was collected from male, cannulated, CD Sprague Dawley rats to determine the pharmacokinetics of formulations containing compound inhibitors of Rho kinase. Each animal was dosed orally with a 4 ml/kg solution or suspension of each test compound in 10 mM acetate buffered saline, pH 4.5 at a final concentration range of 20-30 μmol/kg. Blood was collected at 0.25, 0.5, 1, 2, 4, 6, 8, and 24 hours. Plasma samples were assayed for the concentration of the test compound using an on-line, solid phase extraction LC/MS/MS analysis system.
# Samples were analyzed on a QSTAR Elite, hybrid quadrupole time-of-flight mass spectrometer (Applied Biosystems, Framingham, Mass.) coupled with a Symbiosis Pharma integrated, on-line SPE-HPLC system (Spark Holland Inc., Plainsboro, N.J.). Analyst QS 2.0 software was used for instrument control, data acquisition and processing. […] Mobile Phase A consisted of 0.1% ammonium hydroxide in water and Mobile Phase B consisted of 0.1% formic acid in acetonitrile. Pharmacokinetic analyses were performed using WinNonlin software version 5.2 (Pharsight Corporation, Mountain View, Calif.).
# As determined from the plasma concentration versus time curves, the time to peak and peak exposure are represented by the values Tmax and Cmax, respectively. The AUC values (nM*hr) shown were calculated as the areas under the plasma concentration versus time curves from time zero through the time of the last observable value and represent the total exposure of the compound over the course of the study. Half-life values or the amount of time required for the plasma levels of the compound to decline to half the initial value are represented as t1/2.
# [4] = system: cytokine secretion from LPS-stimulated human monocytes; assay: Human monocyte cytokine secretion assay (LPS); type: cell-based
# Description: Peripheral blood from healthy human volunteers was collected and the monocytes isolated via Ficoll-paque density centrifugation. […] The cells were allowed to pre-incubate with test compound at the indicated concentration for 30 minutes (37° C., 5% CO2, humidified air); after which the supernatant was removed and media containing compound and 1 ng/mL LPS was added. Cells were allowed to incubate with compounds and LPS for 4 hours at 37° C. after which the supernatant was removed and stored at −80° C. Cytokine concentrations in the supernatant were determined using commercially available Bio-Rad Bio-plex™ kits according the manufacturer's instructions.
# ERK1 = biological target: T2, ERK1 (Homo sapiens, UniProt P27361); assay: Kinase panel screen (KinaseProfiler), ERK1; type: biochemical; conditions: 10 μM ATP
# T2 construct: purchased Upstate, Millipore Bioscience Division (KinaseProfiler service)
# T2 sequence (P27361 whole entry): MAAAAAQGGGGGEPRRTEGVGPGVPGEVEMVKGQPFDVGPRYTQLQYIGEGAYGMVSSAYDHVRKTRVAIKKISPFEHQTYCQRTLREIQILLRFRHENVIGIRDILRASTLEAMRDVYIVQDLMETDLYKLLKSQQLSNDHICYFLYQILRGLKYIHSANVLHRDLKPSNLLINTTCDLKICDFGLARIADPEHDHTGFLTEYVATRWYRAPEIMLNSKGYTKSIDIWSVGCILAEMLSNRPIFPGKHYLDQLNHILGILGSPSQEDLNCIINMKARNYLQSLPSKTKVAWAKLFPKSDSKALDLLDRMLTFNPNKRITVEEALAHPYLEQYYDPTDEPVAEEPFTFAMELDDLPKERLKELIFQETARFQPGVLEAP
# Description: as §1
# [5] = system: ova-sensitized, ova-challenged mice; assay: In vivo anti-inflammatory assay in ovalbumin-sensitized mice (BALF eosinophils and cytokines); set-up: species or system mouse; conditions: dosed orally to day 31, anti-inflammatory dosing paradigm; FIG. 11
# Source text: A mouse model of asthma via ovalbumin sensitization was created as described in Example 23. The anti-inflammatory dosing paradigm (FIG. 10) was utilized to evaluate the anti-inflammatory effects of experimental compounds. The anti-inflammatory dosing paradigm consists of dosing the animals once a day starting on day 27 and finishing on either day 30 or 31 (1 hr prior to the aerosolized ovalbumin challenges on days 28 to 30) but not on day 32 when hyperreactivity evaluation occurs.
# Bronchoalveolar lavage fluid (BALF) was collected by infusing 3.0 ml of saline with 10% fetal calf serum into the lungs via the trachea and then withdrawing the fluid. The total amount of cells/ml of BALF fluid was determined via manual cell count on hemocytometer. The BALF was centrifuged, supernatant removed and analyzed for cytokine concentrations as described below, and cell pellet reconstituted in 500 μL of fluid. Cytospin slides were prepared from the cell pellet using 100 μL of fluid and spinning samples for 5 minutes at 5000 rpms in a cytospin centrifuge. Following Hema3 stain, relative percentages of individual leukocytes were determined on a 200 cell count for each sample. The final concentration of individual leukocyte cell types per ml of BALF was determined by multiplication of the relative percentage of individual leukocytes with the total amount of cells/ml of BALF fluid.
# The concentrations of cytokines in the BALF samples were determined using commercially available Bio-plex kits (Bio-Rad) for the detection of mouse IL-5, IL-13, and Eotaxin. The analysis of cytokine levels was measured using the Bio-Plex 200 (Bio-Rad) system according to the manufacturer's instructions.
# [6] = rat, oral, 20-30 μmol/kg, plasma, mean of n = 3
structure (smiles),measurement,setting,value
"Cc1ccc(CN2CCC[C@@H](Nc3ccc4[nH]ncc4c3)C2)cc1OCCO [Compound 1.161, (R)-2-(5-((3-(1H-indazol-5-ylamino)piperidin-1-yl)methyl)-2-methylphenoxy)ethanol]",airway hyperreactivity,[1],prevention of airway hyperreactivity
same,"Percent inhibition, ERK2",ERK2; 1 μM test compound,104%
same,"Percent inhibition, ERK2",ERK2; 10 μM test compound,92%
same,"Percentage of carbachol-induced contraction at 1 μM compound, Avg %",rat trachea rings,40.3%
same,"Trachael Ring Contraction, %",rat trachea rings,40%
same,log10AUC (penh),[2]; 15 μmol/kg intraperitoneal,1.9042
"CCc1ccc(CN2CCC[C@@H](Nc3ccc4[nH]ncc4c3)C2)cc1 [Compound 1.136, (R)-N-(1-(4-ethylbenzyl)piperidin-3-yl)-1H-indazol-5-amine]","Percentage of carbachol-induced contraction at 1 μM compound, Avg %",rat trachea rings,45.0%
same,"Percentage of carbachol-induced contraction at 10 μM compound, Avg %",rat trachea rings,19.7%
same,IC50,rat trachea rings; Rattus norvegicus,861 nM
same,"Trachael Ring Contraction, %",rat trachea rings,45%
same,oral bioavailability,[3]; oral dosing,poor oral bioavailability
same,AUC (0-last),[3]; [6],BLQ
same,Cmax,[3]; [6],BLQ
same,Tmax,[3]; [6],BLQ
same,Vz_F,[3]; [6],BLQ
same,t½,[3]; [6],BLQ
same,log10AUC (penh),[2]; 15 μmol/kg intraperitoneal,2.1379
same,log10AUC (penh),[2]; 15 μmol/kg oral,2.2490
same,reduction in airway hyperresponsiveness,"[2]; i.p. route, compared to oral dosing",enhanced reduction
same,reduction in airway hyperresponsiveness,[2]; oral doses,did not yield a significant reduction
"OCCOc1cccc(CN2CCC[C@@H](Nc3ccc4[nH]ncc4c3)C2)c1 [Compound 1.092, (R)-2-(3-((3-(1H-indazol-5-ylamino)piperidin-1-yl)methyl)phenoxy)ethanol]","Percentage of carbachol-induced contraction at 1 μM compound, Avg %",rat trachea rings,67.7%
same,"Percentage of carbachol-induced contraction at 10 μM compound, Avg %",rat trachea rings,−2.9%
same,IC50,rat trachea rings; Rattus norvegicus,453 nM
same,Vz_F,[3]; [6],19.0 L/kg
"Cc1ccc(CN2CC[C@@H](Nc3cccc4cnccc34)C2)cc1OCCO [Compound 2.064, (R)-2-(5-((3-(isoquinolin-5-ylamino)pyrrolidin-1-yl)methyl)-2-methylphenoxy)ethanol]",IL-1β %,"[4]; 4 h, 10 µM",14.3%
same,"IL-6, %","[4]; 4 h, 10 µM",45.7%
same,TNF-α %,"[4]; 4 h, 10 µM",66.2%
same,IL-1β %,[4]; average percent of stimulated IL-1β secretion from human monocytes at 10 μM of test compound,14.3%
same,"IL-6, %",[4]; average percent of stimulated IL-6 secretion from human monocytes at 10 μM of test compound,45.7%
same,TNF-α %,[4]; average percent of stimulated TNF-α secretion from human monocytes at 10 μM of test compound,66.2%
"NS(=O)(=O)c1cccc(CN2CCC[C@H](Nc3ccc4[nH]ncc4c3)C2)c1 [Compound 1.215, (S)-3-((3-(1H-indazol-5-ylamino)piperidin-1-yl)methyl)benzenesulfonamide]","Percentage of carbachol-induced contraction at 1 μM compound, Avg %",rat trachea rings,40.6%
same,"Trachael Ring Contraction, %",rat trachea rings,41%
same,log10AUC (penh),[2]; 15 μmol/kg intraperitoneal,2.0081
"NC(=O)Cn1ccc2cc(CN3CCC[C@@H](Nc4ccc5[nH]ncc5c4)C3)ccc21 [Compound 1.162, (R)-2-(5-((3-(1H-indazol-5-ylamino)piperidin-1-yl)methyl)-1H-indol-1-yl)acetamide]","Percent inhibition, ERK2",ERK2; 1 μM test compound,89%
same,"Percent inhibition, ERK2",ERK2; 10 μM test compound,60%
same,"Percentage of carbachol-induced contraction at 1 μM compound, Avg %",rat trachea rings,34.4%
same,"Trachael Ring Contraction, %",rat trachea rings,34%
same,"Percent inhibition, ERK1",ERK1; 1 μM test compound,84%
same,"Percent inhibition, ERK1",ERK1; 10 μM test compound,50%
same,log10AUC (penh),[2]; 15 μmol/kg intraperitoneal,1.7001
"Cc1ccc(CN2CC[C@@H](Nc3cccc4cnccc34)C2)cc1 [Compound 2.025, (R)-N-(1-(4-methylbenzyl)pyrrolidin-3-yl)isoquinolin-5-amine]","Percentage of carbachol-induced contraction at 1 μM compound, Avg %",rat trachea rings,33.3%
same,"Trachael Ring Contraction, %",rat trachea rings,33%
same,log10AUC (penh),[2]; 15 μmol/kg intraperitoneal,1.9667
"c1cc2cc(CN3CCC[C@@H](Nc4ccc5[nH]ncc5c4)C3)ccc2o1 [Compound 1.131, (R)-N-(1-(benzofuran-5-ylmethyl)piperidin-3-yl)-1H-indazol-5-amine]",airway hyperreactivity to methacholine,"[1]; oral 15 μMol/kg once a day during days 27 to 31, methacholine on Day 32",prevention of airway hyperreactivity
same,"Percentage of carbachol-induced contraction at 1 μM compound, Avg %",rat trachea rings,37.4%
same,"Percentage of carbachol-induced contraction at 10 μM compound, Avg %",rat trachea rings,14.2%
same,IC50,rat trachea rings; Rattus norvegicus,243 nM
same,"Trachael Ring Contraction, %",rat trachea rings,37%
same,eosinophils per ml of BALF (airway eosinophil infiltration),[5],reduced
same,plasma and lung tissue concentrations after oral dosing,"[3]; oral dosing, refers to Table 13 and Table 15",high plasma and lung tissue concentrations
same,log10AUC (penh),[2]; 15 μmol/kg oral,2.0283
same,reduction in airway hyperresponsiveness,[2]; oral doses,statistically significant reduction
"OCCn1ccc2cc(CN3CC[C@@H](Nc4cccc5cnccc45)C3)ccc21 [Compound 2.066, (R)-2-(5-((3-(isoquinolin-5-ylamino)pyrrolidin-1-yl)methyl)-1H-indol-1-yl)ethanol]",airway hyperreactivity,[1],prevention of airway hyperreactivity
same,"Percent inhibition, ERK2",ERK2; 1 μM test compound,50%
same,"Percent inhibition, ERK2",ERK2; 10 μM test compound,12%
same,"Percent inhibition, ERK1",ERK1; 1 μM test compound,52%
same,"Percent inhibition, ERK1",ERK1; 10 μM test compound,15%
"NCc1cccc(CN2CCC[C@@H](Nc3ccc4[nH]ncc4c3)C2)c1 [Compound 1.235, (R)-N-(1-(3-(aminomethyl)benzyl)piperidin-3-yl)-1H-indazol-5-amine]",log10AUC (penh),[2]; 15 μmol/kg intraperitoneal,1.9362
"C[C@@H](N)[C@H]1CC[C@H](C(=O)Nc2ccncc2)CC1 [Compound Y-27632, reference compound]","Percentage of carbachol-induced contraction at 1 μM compound, Avg %",rat trachea rings,83.7%
same,"Percentage of carbachol-induced contraction at 10 μM compound, Avg %",rat trachea rings,23.4%
same,IC50,rat trachea rings; relaxation of 1 μM carbachol precontracted rat tracheal rings,4780 nM
same,log10AUC (penh),[2]; 30 μmol/kg oral,2.0135
